Where a name gives a salt, the structure may show the parent alone.
System: Staphylococcus aureus, Staphylococcus epidermidis, Malassezia furfur
Test: Lowest MIC over the microorganisms tested
Assay type: cell-based
Settings: lowest MIC value obtained over the tested microorganisms
Description: Minimal Inhibitory Concentration tests are tests typically used to measure growth inhibition by a substance. MICs are defined as the lowest test concentrations of the test substance at which growth of specific microorganisms are inhibited.
In the present case predefined dilutions of the test substance in the appropriate culture medium were prepared and inoculated with the microorganism of interest. After incubation, the test organisms were cultured over a time-period and under conditions normally allowing growth of the microorganism. Vehicle controls (vehicle=solvent used, e. g. water) were also assessed to determine growth without the test substance. The organisms of interest tested were the representative strains S. aureus (found on the skin, often a pathogen), S. epidermidis and Malassezia furfur. The higher the MIC value, the less inhibition of growth is observed. In the following results the test concentrations are given as percent of active substance content.
For each substance the lowest MIC value obtained determines whether this substance in useful as microbiome friendly cosmetic ingredient. A substance is useful as microbiome friendly cosmetic ingredient, if this lowest MIC is not lower than a threshold value. This threshold value depends on the type of the substance (solubilizer, emulsifier etc.) and is related to the amount in which these types of substances are generally used in common cosmetic formulations.

Compound | lowest MIC [% by weight]
OCC(O)CO [Glycerin] | 20.00
CCCCCCCCCCCCCCCCCC(=O)OCC(O)CO.O=C(O)CC(O)(CC(=O)O)C(=O)O (stereo not drawn) [Glyceryl Stearate Citrate] | >3
Conjugated Linoleic Acid | >1
O=C(O)c1ccccc1 [Sodium Benzoate] | 0.25
Disodium Cetearyl Sulfosuccinate | 0.05
CCOC(=O)CC(O)(CC(=O)OCC)C(=O)OCC [Triethyl Citrate] | 1
CCCCCCCCCCCCCCCCOP(=O)([O-])[O-].[K+].[K+] [Potassium Cetyl Phosphate] | 1.00
CCCCC/C=C\C/C=C\CCCCCCCC(=O)OCC [ethyl linoleate] | >1
Sodium Cetearyl Sulfate | 0.08
CC(O)CCO (stereo not drawn) [Butylene Glycol, 1,3-Butanediol] | 20.00
CCCCCCCC/C=C\CCCCCCCC(=O)OCC(O)CO (stereo not drawn) [Glyceryl Oleate] | >2
OCCCCO [1.4 Butandiol, 1,4 Butandiol] | >1

— patent US20260355097A1, “MICROBIOME FRIENDLY SUBSTANCES AND MICROBIOME FRIENDLY COSMETIC FORMULATIONS” (BASF SE, priority 2023, published 2026)
